Values belong to the compound of their own block, whether it stands above or below them. Activity calls are given as the source filed them. No cut-off for these calls is given here.
Assays:
Rattus norvegicus [1] = test: Neuromuscular blocking in Sprague-Dawley rat assessed as inhibition of electrical stimulation induced twitch amplitude at 0.8 mg/kg, iv; format: functional, organism-based
[2] = Solubility of compound in Na2HPO4/NaH2PO4 buffer; format: physicochemical
L02 = test: Cytotoxicity against L02 cells at 512 ug/ml incubated for 24 hrs by CCK8 assay; format: toxicity, cell-based; details: human, l02, 24 h, dose 512 µg/ml
[3] = Toxicity in Sprague-Dawley rat at 9 mg/kg, iv measured after 1 hr; format: organism-based; details: in vivo
Erythrocyte [4] = test: Hemolysis in rat RBC; format: toxicity, cell-based
Rattus norvegicus [5] = species on record: Rattus norvegicus; test: Neuromuscular blocking in Sprague-Dawley rat assessed as inhibition of electrical stimulation induced twitch amplitude; format: functional
Erythrocyte [6] = test: Hemolysis in human RBC; format: toxicity, cell-based
Rattus norvegicus [7] = test: Neuromuscular blocking in Sprague-Dawley rat assessed as duration time to TOF ratio of 0.25 recovery at 1.6 mg/kg, iv; format: functional
Rattus norvegicus [8] = test: Neuromuscular blocking in Sprague-Dawley rat assessed as duration time to TOF ratio of 0.25 recovery at 2.4 mg/kg, iv; format: functional
H9c2 = test: Cytotoxicity against rat H9C2 cells at 512 ug/ml incubated for 24 hrs by CCK8 assay; format: toxicity, cell-based; details: h9c2, 24 h, dose 512 µg/ml
Rattus norvegicus [9] = test: (§1) Reversal of 2,27-dioxa-11,18,36,43-tetraza-8,21,33,46-tetrazoniaundecacyclo[46.2.2.23,6.213,16.223,26.228,31.238,41.18,11.118,21.133,36.143,46]hexahexaconta-1(50),3,5,8(64),9,13(63),14,16(62),19,21(61),23,25,28,30,33(56),34,38,40,44,46(53),48,51,54,57,59,65-hexacosaene tetrachloride induced neuromuscular block in Sprague-Dawley rat assessed as recovery time at 2.5 mg/kg, iv; format: functional
Rattus norvegicus [10] = test: as §1, with “10” for “2.5”; format: functional
[11] = Solubility of compound in phosphate buffer; format: physicochemical
Rattus norvegicus [12] = test: as §1, with “0.36” for “2.5”; format: functional
[13] = Toxicity in ICR mouse assessed as kidney abnormality at 200 to 400 mg/kg after 14 days by H and E staining based optical microscopic analysis; format: organism-based; details: in vivo, 336 h, dose 200-400 mg/kg, time 14 day
[14] = Toxicity in ICR mouse assessed as maximal tolerated dose; details: in vivo
[15] = Toxicity in ICR mouse assessed as weight loss at 400 mg/kg, iv measured after 1 day; format: organism-based; details: in vivo, 24 h
Rattus norvegicus [16] = test: as §1, with “50” for “2.5”, “iv after 1 min” for “iv”; format: functional
Rattus norvegicus [17] = test: as §1, with “20” for “2.5”; format: functional
[18] = Toxicity in ICR mouse assessed as spleen abnormality at 200 to 400 mg/kg after 14 days by H and E staining based optical microscopic analysis; format: organism-based; details: in vivo, 336 h, dose 200-400 mg/kg, time 14 day
[19] = Toxicity in ICR mouse assessed as lung abnormality at 200 to 400 mg/kg after 14 days by H and E staining based optical microscopic analysis; format: organism-based; details: in vivo, 336 h, dose 200-400 mg/kg, time 14 day
[20] = Toxicity in ICR mouse assessed as heart abnormality at 200 to 400 mg/kg after 14 days by H and E staining based optical microscopic analysis; format: organism-based; details: in vivo, 336 h, dose 200-400 mg/kg, time 14 day
[21] = Toxicity in ICR mouse assessed as liver abnormality at 200 to 400 mg/kg after 14 days by H and E staining based optical microscopic analysis; format: organism-based; details: in vivo, 336 h, dose 200-400 mg/kg, time 14 day
Rattus norvegicus [22] = test: Neuromuscular blocking in Sprague-Dawley rat assessed as duration time to TOF ratio of 0.25 recovery at 3.5 mg/kg, iv; format: functional

SMILES: c1cc2ccc1Cn1cc[n+](c1)Cc1ccc(cc1)C[n+]1ccn(c1)Cc1ccc(cc1)O2
Activity (Rattus norvegicus [1]): inactive

solubility [2]: 78 mg/mL
SMILES: [Cl-].[Cl-].[Cl-].[Cl-].c1cc2ccc1Cn1cc[n+](c1)Cc1ccc(cc1)Oc1ccc(cc1)C[n+]1ccn(c1)Cc1ccc(cc1)Cn1cc[n+](c1)Cc1ccc(cc1)Oc1ccc(cc1)C[n+]1ccn(c1)C2
Activity (L02): Non-Toxic
Activity [3]: Non-Toxic
Activity (Erythrocyte [4]): Non-Toxic
ED90 (Rattus norvegicus [5]): 0.8 mg/kg
Activity (Erythrocyte [6]): Non-Toxic
Time (Rattus norvegicus [7]): 1785 s
Time (Rattus norvegicus [8]): 4965 s
Activity (H9c2): Non-Toxic

SMILES: c1ccc(C[n+]2ccn(Cc3ccc(Oc4ccc(Cn5cc[n+](Cc6ccccc6)c5)cc4)cc3)c2)cc1
Activity (Rattus norvegicus [1]): inactive

solubility [11]: 29.5 mg/mL
SMILES: C[C@]12N3Cc4c(c(OCCCS(=O)(=O)[O-])c5ccccc5c4OCCCS(=O)(=O)[O-])CN1C(=O)N1CN4C(=O)N5CN6C(=O)N7CN8C(=O)N9Cc%10c(c(OCCCS(=O)(=O)[O-])c%11ccccc%11c%10OCCCS(=O)(=O)[O-])CN%10C(=O)N(CN%11C(=O)N(CN%12C(=O)N(CN(C3=O)[C@]12C)[C@@H]4[C@H]%125)[C@@H]6[C@H]%117)[C@]8(C)[C@@]9%10C.[Na+].[Na+].[Na+].[Na+]
Time (Rattus norvegicus [9]): 215 s
Time (Rattus norvegicus [10]): 18 s

SMILES: CN(C)C(=O)Oc1cccc([N+](C)(C)C)c1 [NEOSTIGMINE]
Time (Rattus norvegicus [12]): 694 s

solubility [2]: 21 mg/mL
SMILES: [Cl-].[Cl-].[Cl-].[Cl-].c1cc2ccc1Cn1cc[n+](c1)Cc1ccc(cc1)-c1ccc(cc1)C[n+]1ccn(c1)Cc1ccc(cc1)Cn1cc[n+](c1)Cc1ccc(cc1)-c1ccc(cc1)C[n+]1ccn(c1)C2
ED90 (Rattus norvegicus [5]): 1.07 mg/kg
Activity (Rattus norvegicus [1]): inactive

SMILES: C[C@]12N3Cc4c(c(OCCCC(=O)[O-])c5ccccc5c4OCCCC(=O)[O-])CN1C(=O)N1CN4C(=O)N5CN6C(=O)N7CN8C(=O)N9Cc%10c(c(OCCCC(=O)[O-])c%11ccccc%11c%10OCCCC(=O)[O-])CN%10C(=O)N(CN%11C(=O)N(CN%12C(=O)N(CN(C3=O)[C@]12C)[C@@H]4[C@H]%125)[C@@H]6[C@H]%117)[C@]8(C)[C@@]9%10C.[Na+].[Na+].[Na+].[Na+]
Activity [13]: Non-Toxic
MTD [14]: 550 mg/kg
Activity [15]: Toxic
Activity (Rattus norvegicus [16]): 100%
Activity (L02): Non-Toxic
Time (Rattus norvegicus [9]): 205 s
Activity (Erythrocyte [4]): Non-Toxic
Time (Rattus norvegicus [17]): 17 s
Activity [18]: Non-Toxic
Time (Rattus norvegicus [10]): 16 s
Activity [19]: Non-Toxic
Activity [20]: Non-Toxic
solubility [11]: 293 mg/mL
Activity [21]: Non-Toxic
Activity (Erythrocyte [6]): Non-Toxic
Activity (H9c2): Non-Toxic

SMILES: C=CC[N+]1([C@H]2C[C@H]3[C@@H]4CC[C@H]5C[C@H](O)[C@@H](N6CCOCC6)C[C@]5(C)[C@H]4CC[C@]3(C)[C@H]2OC(C)=O)CCCC1 [ROCURONIUM]
Time (Rattus norvegicus [22]): 497 s

SMILES: COc1ccc(Cn2cc[n+](Cc3ccc(C[n+]4ccn(Cc5ccc(OC)cc5)c4)cc3)c2)cc1
Activity (Rattus norvegicus [1]): inactive

SMILES: c1cc2ccc1C[n+]1ccc(cc1)-c1cc[n+](cc1)Cc1ccc(cc1)C[n+]1ccc(cc1)-c1cc[n+](cc1)C2
Activity (Rattus norvegicus [1]): inactive

SMILES: O=C(O)CCSC[C@H]1O[C@@H]2O[C@H]3[C@H](O)[C@@H](O)[C@@H](O[C@H]4[C@H](O)[C@@H](O)[C@@H](O[C@H]5[C@H](O)[C@@H](O)[C@@H](O[C@H]6[C@H](O)[C@@H](O)[C@@H](O[C@H]7[C@H](O)[C@@H](O)[C@@H](O[C@H]8[C@H](O)[C@@H](O)[C@@H](O[C@H]9[C@H](O)[C@@H](O)[C@@H](O[C@H]1[C@H](O)[C@H]2O)O[C@@H]9CSCCC(=O)O)O[C@@H]8CSCCC(=O)O)O[C@@H]7CSCCC(=O)O)O[C@@H]6CSCCC(=O)O)O[C@@H]5CSCCC(=O)O)O[C@@H]4CSCCC(=O)O)O[C@@H]3CSCCC(=O)O
Time (Rattus norvegicus [17]): 1175 s

solubility [2]: 58 mg/mL
SMILES: [Cl-].[Cl-].[Cl-].[Cl-].c1cc2ccc1Cc1ccc(cc1)C[n+]1ccn(c1)Cc1ccc(cc1)Cn1cc[n+](c1)Cc1ccc(cc1)Cc1ccc(cc1)C[n+]1ccn(c1)Cc1ccc(cc1)Cn1cc[n+](c1)C2
ED90 (Rattus norvegicus [5]): 1.16 mg/kg
Activity (Rattus norvegicus [1]): inactive

solubility [11]: 400 mg/mL
SMILES: Cc1c(C)c(OCCCC(=O)[O-])c2c(c1OCCCC(=O)[O-])CN1C(=O)N3CN4C(=O)N5CN6C(=O)N7CN8C(=O)N9Cc%10c(c(OCCCC(=O)[O-])c(C)c(C)c%10OCCCC(=O)[O-])CN%10C(=O)N(CN%11C(=O)N(CN%12C(=O)N(CN%13C(=O)N(C2)[C@]1(C)[C@]%133C)[C@@H]4[C@@H]5%12)[C@@H]6[C@@H]7%11)[C@]8(C)[C@]%109C.[Na+].[Na+].[Na+].[Na+]
Time (Rattus norvegicus [9]): 259 s
Time (Rattus norvegicus [10]): 16 s

solubility [11]: 549 mg/mL
SMILES: C[C@]12N3Cc4c(OCCCC(=O)[O-])ccc(OCCCC(=O)[O-])c4CN1C(=O)N1CN4C(=O)N5CN6C(=O)N7CN8C(=O)N9Cc%10c(OCCCC(=O)[O-])ccc(OCCCC(=O)[O-])c%10CN%10C(=O)N(CN%11C(=O)N(CN%12C(=O)N(CN(C3=O)[C@]12C)[C@@H]4[C@H]%125)[C@@H]6[C@H]%117)[C@]8(C)[C@@]9%10C.[Na+].[Na+].[Na+].[Na+]
Time (Rattus norvegicus [9]): 411 s
Time (Rattus norvegicus [10]): 18 s

Source: ChEMBL document CHEMBL5385912, “Macrocycles and Acyclic Cucurbit[n]urils as Pseudo[2]catenane Partners for Long-Acting Neuromuscular Blocks and Rapid Reversal In Vivo” (J Med Chem, 2024)
